{"source": "patent US20080075677A1", "about": "“Antioxidant Complex and a Cosmetic and Pharmaceutical Composition Comprising Said Complex” (priority 2004, published 2008)", "experiment": "DPPH free-radical test of antioxidant potential", "assay_type": "biochemical", "source_text": "Objective: analyzing the antioxidant potential of the complex of the present invention in comparison with other known antioxidant system compositions. A solution of 0.004% of DPPH (diphenyl […] hydrazyl) in ethanol was used. The action of DPPH on ethanol generates free radicals, forming colorful aducts, which are spectrophotometrically detected. Further, a solution of BHT in ethanol was used and its solutions described in the table below. Tubes with the DPPH solution and the compositions of the above products were prepared.", "data": [{"molecule": "O=C1O[C@H]([C@@H](O)CO)C(O)=C1O", "note": "[vitamin C, ascorbic acid]", "values": [{"measurement": "effect of vitamin C on the potential of the antioxidant complex at determined concentrations", "setting": "at determined concentrations of vitamin C", "result": "causes reduction of said potential"}, {"measurement": "effect of the presence of vitamin C on the potential of the antioxidant complex", "setting": "vitamin C added to the antioxidant complex composition", "result": "does not improve the potential"}]}]}
